“And” between values parts separate entries of the source, which are not always exact repeats. Equal values may be shown once. Toxic doses and inconclusive results are not listed. Rule for the calls: active = survival T/C of 150% or more; inactive = T/C below 125% in these data.
Test system: BDF1 mice, B16 melanoma ip, median survival T/C
Assay: NCI In Vivo Anticancer Drug Screen. Data for tumor model B16 Melanoma (intraperitoneal) in B6D2F1 (BDF1) mice
Conditions: endpoint: median survival time, higher = longer survival
Method in brief: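 Mice with transplantable tumors; drug vs vehicle groups; endpoint survival or tumor size; value = T/C.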

[1] = dose: 100.0 mg/kg/injection, schedule: Q01DX009 (ip), vehicle: Klucel (hydroxypropylcellulose) (HPC)
[2] = dose: 200.0 mg/kg/injection, schedule: Q01DX009 (ip), vehicle: Klucel (hydroxypropylcellulose) (HPC)
[3] = dose: 400.0 mg/kg/injection, schedule: Q01DX009 (ip), vehicle: Klucel (hydroxypropylcellulose) (HPC)
[4] = dose: 25.0 mg/kg/injection, schedule: Q01DX009 (ip), vehicle: saline with Tween-80
[5] = dose: 50.0 mg/kg/injection, schedule: Q01DX009 (ip), vehicle: saline with Tween-80
[6] = dose: 100.0 mg/kg/injection, schedule: Q01DX009 (ip), vehicle: saline with Tween-80
[7] = dose: 400.0 mg/kg/injection, schedule: Q01DX009 (ip), vehicle: saline with Tween-80
[8] = dose: 1.56 mg/kg/injection, schedule: Q01DX009 (ip), vehicle: Klucel (hydroxypropylcellulose) (HPC)
[9] = dose: 12.5 mg/kg/injection, schedule: Q01DX009 (ip), vehicle: Klucel (hydroxypropylcellulose) (HPC)
[10] = dose: 25.0 mg/kg/injection, schedule: Q01DX009 (ip), vehicle: Klucel (hydroxypropylcellulose) (HPC)
[11] = dose: 50.0 mg/kg/injection, schedule: Q01DX009 (ip), vehicle: Klucel (hydroxypropylcellulose) (HPC)
[12] = dose: 200.0 mg/kg/injection, schedule: Q01DX009 (ip), vehicle: saline with Tween-80
[13] = dose: 25.0 mg/kg/injection, schedule: Q01DX009 (ip), vehicle: saline
[14] = dose: 50.0 mg/kg/injection, schedule: Q01DX009 (ip), vehicle: saline
[15] = dose: 12.5 mg/kg/injection, schedule: Q01DX009 (ip), vehicle: saline with Tween-80
[16] = dose: 6.25 mg/kg/injection, schedule: Q01DX009 (ip), vehicle: saline with Tween-80
[17] = dose: 3.0 mg/kg/injection, schedule: Q01DX009 (ip), vehicle: Klucel (hydroxypropylcellulose) (HPC)
[18] = dose: 6.0 mg/kg/injection, schedule: Q01DX009 (ip), vehicle: Klucel (hydroxypropylcellulose) (HPC)
[19] = dose: 12.0 mg/kg/injection, schedule: Q01DX009 (ip), vehicle: Klucel (hydroxypropylcellulose) (HPC)
[20] = dose: 6.25 mg/kg/injection, schedule: Q01DX009 (ip), vehicle: Klucel (hydroxypropylcellulose) (HPC)
[21] = dose: 3.12 mg/kg/injection, schedule: Q01DX009 (ip), vehicle: Klucel (hydroxypropylcellulose) (HPC)

Measured: T/C

CCOc1ccc(NC(=O)COc2ccc(Cl)cc2)cc1
inactive: [1] 103 % of control | [2] 109 % of control | [3] 93 % of control

CCCCCCCCCCCCCCCCOc1ccccc1C(C)=O
inactive: [4] 92 % of control | [5] 92 % of control | [6] 89 % of control | [7] 100 % of control

O=C(NCCCN1CCOCC1)C(Oc1ccccc1)Oc1ccccc1
inactive: dose: 0.09 mg/kg/injection, schedule: Q01DX009 (ip), vehicle: Klucel (hydroxypropylcellulose) (HPC) 88 % of control | dose: 0.19 mg/kg/injection, schedule: Q01DX009 (ip), vehicle: Klucel (hydroxypropylcellulose) (HPC) 92 % of control | dose: 0.78 mg/kg/injection, schedule: Q01DX009 (ip), vehicle: Klucel (hydroxypropylcellulose) (HPC) 87 % of control | [8] 88 % of control | [9] 92 % of control | [10] 86 % of control and 103 % of control | [11] 90 % of control

NC(=O)C1(N2CCCC2)CCN(Cc2ccccc2)CC1
inactive: dose: 25.0 mg/kg/injection, schedule: Q04DX003 (ip), vehicle: Klucel (hydroxypropylcellulose) (HPC) 105 % of control | dose: 50.0 mg/kg/injection, schedule: Q04DX003 (ip), vehicle: Klucel (hydroxypropylcellulose) (HPC) 94 % of control | dose: 100.0 mg/kg/injection, schedule: Q04DX003 (ip), vehicle: Klucel (hydroxypropylcellulose) (HPC) 100 % of control

CNC(=O)Nc1nc2ccc([N+](=O)[O-])cc2[nH]1
inactive: dose: 50.0 mg/kg/injection, schedule: Q01DX009 (ip), vehicle: suspension in saline 101 % of control | dose: 100.0 mg/kg/injection, schedule: Q01DX009 (ip), vehicle: suspension in saline 91 % of control | dose: 200.0 mg/kg/injection, schedule: Q01DX009 (ip), vehicle: suspension in saline 90 % of control | dose: 400.0 mg/kg/injection, schedule: Q01DX009 (ip), vehicle: suspension in saline 91 % of control

COc1ccc(CCNC(C)=O)cc1OC
inactive: [10] 91 % of control | [11] 89 % of control

C=C(C)C1C2CC3(C)C4(CO4)C4OC4C3(O)C1C(=O)O2 (stereo not drawn)
inactive: dose: 0.07 mg/kg/injection, schedule: Q01DX009 (ip), vehicle: Klucel (hydroxypropylcellulose) (HPC) 102 % of control | dose: 0.15 mg/kg/injection, schedule: Q01DX009 (ip), vehicle: Klucel (hydroxypropylcellulose) (HPC) 104 % of control | dose: 0.3 mg/kg/injection, schedule: Q01DX009 (ip), vehicle: Klucel (hydroxypropylcellulose) (HPC) 106 % of control | dose: 0.6 mg/kg/injection, schedule: Q01DX009 (ip), vehicle: Klucel (hydroxypropylcellulose) (HPC) 98 % of control | dose: 1.2 mg/kg/injection, schedule: Q01DX009 (ip), vehicle: Klucel (hydroxypropylcellulose) (HPC) 101 % of control

CC(SC(C)c1ccccc1)c1ccccc1 (stereo not drawn)
inactive: [6] 101 % of control | [12] 99 % of control | [7] 88 % of control

COc1ccc(NC(=O)Nc2ccc(Br)cc2)cc1
inactive: [4] 98 % of control | [5] 92 % of control | [6] 89 % of control and 95 % of control

CN(C)CCCn1c2c(c3ccccc31)CCCCCC2
inactive: dose: 3.12 mg/kg/injection, schedule: Q01DX009 (ip), vehicle: saline 119 % of control | dose: 6.25 mg/kg/injection, schedule: Q01DX009 (ip), vehicle: saline 100 % of control | dose: 12.5 mg/kg/injection, schedule: Q01DX009 (ip), vehicle: saline 100 % of control | [13] 113 % of control | [14] 94 % of control

CC1=Nc2ccccc2/C1=C\c1c(C)[nH]c2ccccc12
inactive: [13] 110 % of control | [14] 113 % of control | dose: 100.0 mg/kg/injection, schedule: Q01DX009 (ip), vehicle: saline 121 % of control | dose: 200.0 mg/kg/injection, schedule: Q01DX009 (ip), vehicle: saline 97 % of control

CCCc1ccc(OC)cc1
inactive: [4] 97 % of control | [5] 105 % of control | [6] 90 % of control

COc1ccc(C2CCc3cc4c(cc3/C2=N/OC(C)=O)OCO4)cc1OC (stereo not drawn)
inactive: [1] 109 % of control | [2] 110 % of control | [3] 105 % of control

CCCCCCC#CC(=O)OC
inactive: [15] 110 % of control | [4] 93 % of control | [5] 97 % of control and 100 % of control

COc1cc(C2c3cc4c(cc3CC3COC(=O)C32)OCO4)cc(OC)c1O (stereo not drawn)
inactive: dose: 0.5 mg/kg/injection, schedule: Q01DX009 (ip), vehicle: saline with Tween-80 98 % of control | dose: 1.0 mg/kg/injection, schedule: Q01DX009 (ip), vehicle: saline with Tween-80 104 % of control | dose: 2.0 mg/kg/injection, schedule: Q01DX009 (ip), vehicle: saline with Tween-80 123 % of control | dose: 4.0 mg/kg/injection, schedule: Q01DX009 (ip), vehicle: saline with Tween-80 106 % of control

CS/C([S-])=N/[NH-].CS/C([S-])=N/[NH-].[Pd]
inactive: dose: 3.13 mg/kg/injection, schedule: Q01DX009 (ip), vehicle: saline with Tween-80 98 % of control | [16] 101 % of control | [15] 99 % of control

Cc1cc2nc(-c3ccccc3)c(-c3ccccc3)nc2cc1C
inactive: [6] 102 % of control | [12] 100 % of control | [7] 91 % of control

O=C(CCCc1ccc(N(CCCl)CCCl)cc1)Nc1ncccn1
inactive: [17] 104 % of control | [18] 109 % of control | [19] 109 % of control

Nc1c(Cl)c(Cl)nc(C(=O)O)c1Cl
inactive: [20] 96 % of control | [9] 108 % of control | [10] 108 % of control | dose: 25.0 mg/kg/injection, schedule: Q02DX009 (ip), vehicle: Klucel (hydroxypropylcellulose) (HPC) 95 % of control | [11] 96 % of control | dose: 50.0 mg/kg/injection, schedule: Q02DX009 (ip), vehicle: Klucel (hydroxypropylcellulose) (HPC) 91 % of control | dose: 50.0 mg/kg/injection, schedule: Q02DX009 (ip), vehicle: other 95 % of control | [1] 102 % of control | dose: 100.0 mg/kg/injection, schedule: Q02DX009 (ip), vehicle: other 86 % of control | [2] 98 % of control

Cc1c(CCl)c(C)c(CCl)c(C)c1CCl
inactive: [17] 102 % of control | [18] 100 % of control | [19] 100 % of control

NC(N)=Nc1ccc(C(=O)Nc2ccc([N+](=O)[O-])cc2)cc1
inactive: [11] 98 % of control | [1] 98 % of control | [2] 94 % of control

CC(C)Oc1ccc2c(c1)N(CCC1CCCCN1)c1ccccc1S2 (stereo not drawn)
inactive: [8] 97 % of control | [21] 98 % of control | [20] 112 % of control | [9] 91 % of control | [10] 86 % of control

Cc1ccc(C)c(NC(=O)Nc2ccc(Cl)cc2)c1
inactive: dose: 50.0 mg/kg/injection, schedule: Q01DX009 (ip), vehicle: gum acacia 121 % of control | dose: 100.0 mg/kg/injection, schedule: Q01DX009 (ip), vehicle: gum acacia 92 % of control | dose: 200.0 mg/kg/injection, schedule: Q01DX009 (ip), vehicle: gum acacia 98 % of control

OC(CCN1CCCC1)(c1ccccc1)C1CCCCC1 (stereo not drawn)
inactive: [20] 101 % of control | [10] 98 % of control | [11] 93 % of control | [1] 87 % of control

COc1cc2c(c(OC)c1OC)-c1ccc(SCc3ccccc3)c(=O)cc1[C@@H](NC(C)=O)CC2
inactive: [8] 91 % of control and 111 % of control | [21] 102 % of control and 107 % of control | [20] 101 % of control and 106 % of control | [9] 109 % of control and 111 % of control | [10] 113 % of control

Cc1ccc[c]([Hg][Cl])c1N=Nc1ccccc1
inactive: dose: 0.39 mg/kg/injection, schedule: Q01DX009 (ip), vehicle: saline with Tween-80 101 % of control | dose: 0.78 mg/kg/injection, schedule: Q01DX009 (ip), vehicle: saline with Tween-80 100 % of control | dose: 1.56 mg/kg/injection, schedule: Q01DX009 (ip), vehicle: saline with Tween-80 97 % of control | dose: 3.12 mg/kg/injection, schedule: Q01DX009 (ip), vehicle: saline with Tween-80 97 % of control | [16] 94 % of control

From PubChem BioAssay AID192 (DTP/NCI, 2004)
